Assay results published in patent US20240116985A1, “STAPLED PEPTIDES AND METHODS THEREOF” (priority 2020, published 2024).
Read-outs that look alike come from different tables or passages of the source.

How the values were obtained:
[1] = target: T1, beta-catenin/TCF4 engagement (Homo sapiens, UniProt P35222); assay: Nano-BRET target engagement assay (B-cat-Halo & TCF4-Luc in HEK293 cells); format: cell-based
T1 construct: expressed in transfected cells; host or cells: HEK293
T1 sequence (P35222 1-781): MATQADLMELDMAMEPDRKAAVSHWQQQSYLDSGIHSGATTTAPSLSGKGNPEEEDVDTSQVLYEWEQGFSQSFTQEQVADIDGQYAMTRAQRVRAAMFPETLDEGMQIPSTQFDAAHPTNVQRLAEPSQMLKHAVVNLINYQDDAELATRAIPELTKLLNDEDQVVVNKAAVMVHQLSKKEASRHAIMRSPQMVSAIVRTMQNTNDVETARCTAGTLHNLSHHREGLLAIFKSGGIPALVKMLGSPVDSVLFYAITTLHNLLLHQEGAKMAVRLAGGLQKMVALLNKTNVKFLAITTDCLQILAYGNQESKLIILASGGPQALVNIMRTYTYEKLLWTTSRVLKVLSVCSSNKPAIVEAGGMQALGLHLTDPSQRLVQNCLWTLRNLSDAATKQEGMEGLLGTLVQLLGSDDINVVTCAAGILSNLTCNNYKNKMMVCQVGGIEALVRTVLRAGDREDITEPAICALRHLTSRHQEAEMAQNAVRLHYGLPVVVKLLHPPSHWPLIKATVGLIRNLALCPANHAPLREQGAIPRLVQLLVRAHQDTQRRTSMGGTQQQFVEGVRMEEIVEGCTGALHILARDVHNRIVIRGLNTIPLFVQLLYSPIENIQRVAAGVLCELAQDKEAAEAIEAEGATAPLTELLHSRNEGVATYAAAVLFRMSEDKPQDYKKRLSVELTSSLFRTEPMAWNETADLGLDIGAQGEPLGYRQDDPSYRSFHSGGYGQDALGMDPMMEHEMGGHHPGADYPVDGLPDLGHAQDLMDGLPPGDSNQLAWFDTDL

[2] = test system: TCF/LEF luciferase Reporter in DLD1 cells; assay: TCF reporter assay (DLD1 TCF/LEF luciferase reporter, Bright-Glo); format: cell-based; conditions: read-out: DLD1 4% Abs IC50
Summary of the method: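 Readouts: Bright-Glo luciferase for reporter signal and CellTiter-Glo for cell viability, with absolute IC50 derived. The reporter clone came from lentiviral TCF/LEF-luciferase transduction of DLD1 cells, seeded 5000 cells/well in RPMI with 4% FBS and exposed overnight to serially diluted compounds.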

[3] = test system: COLO320DM cells; format: cell-based; conditions: COLO320DM cells, read-out: COLO320DM Proliferation Abs IC50
Experimental: COLO320DM proliferation assay IC50: In some embodiments, inhibition of cell proliferation by provided technologies were assessed using cell lines related to or from certain conditions, disorders or diseases. In some embodiments, cell proliferation was assessed in COLO320DM cells. In some embodiments, assessment was performed using the following procedure: On Day 1, cultured COLO320DM cells in a T75 flask were trypsinized in 3 mL of 0.25% trypsin/EDTA for 5 min and quenched with 10 mL RPMI-1640+4% HI FBS assay media. The cells were spun down at 1200 rpm for 5 min, the cell pellet collected and re-suspended at 5000 cells/mL in assay media. Using a Combi liquid handler, cells were dispensed (50 uL, 250 cells/well) into three 384 well plates. Plates were incubated at 37° C., […]. On day 2, compounds were added. A liquid handling system was used to prepare the compound dilution and dispense compound into assay plates. The compounds were serially diluted 1/2 in 90% DMSO to create a 7 point dose curve. From compound plate, 100 nL of compound were dispensed directly into wells of the assay plates to create a dose curve starting at 20 uM and ending at 313 nM. Assay plates were incubated at 37° C., […]. On day 6, assay plates were removed from the incubator and allowed to sit at room temperature for 30 min. Using a liquid handler, 20 uL of CellTiter Glo reagent was added to each well. The assay plates were shaken for 2 min and allowed to sit on the bench for 10-15 minutes. The assay plates were read using the CellTiter Glo protocol on a GloMax microplate reader, and the data analyzed using GraphPad Prism.

[4] = target: T2, full-length beta-Catenin (Uniprot ID P35222) (Homo sapiens, UniProt P35222); assay: Fluorescence polarization IC50 (beta-catenin / 5FAM-TCF4 10-53 competition); format: binding; conditions: fluorescence polarization; read-out: beta-Catenin FP IC50
T2 construct: 10 nM full-length beta-Catenin (Uniprot ID P35222)
T2 sequence (P35222 1-781): T1 sequence (P35222 1-781)

[5] = DLD1 reporter, 4%, absolute IC50
[6] = absolute IC50, read-out: NanoBRET Abs IC50

Row | SMILES | IC50 ([1]; NanoBRET Abs IC50 (uM), absolute IC50) | IC50 [2, 5] | IC50 ([3]; absolute IC50) | IC50 [4] | IC50 [1, 6] | IC50 ([1]; read-out: NanoBRET Abs IC50) | IC50 ([2]; DLD1 reporter, 4%) | IC50 [3] | IC50 ([2]; DLD1 4%)
1 | CC(=O)N1CCC[C@]12CC=CCCCC1(CCCC=CCCCOC(=O)N3CC[C@@](C(=O)N[C@@H](Cc4ccsc4)C(=O)N[C@@H](Cc4csc5ccccc45)C(=O)N[C@@H](CC(N)=O)C(=O)N[C@@H](CC(C)C)C(=O)N[C@@H](CC(C)C)C(=O)N[C@@H](CC(C)C)C(=O)N[C@@H](CC(C)C)C(=O)N[C@@H](CC(C)C)C(N)=O)(C3)NC(=O)[C@H](CC(C)C)NC(=O)[C@H](Cc3ccccc3)NC(=O)[C@H](C)NC(=O)[C@H](C)NC(=O)[C@H](Cc3cccc(C(=O)O)c3)NC(=O)[C@H](CC(=O)O)NC1=O)NC(=O)[C@H](CC(C)(C)C)NC(=O)[C@H](CC(=O)O)NC2=O (single isomer, unassigned) [I-2280, Ac-PL3-Asp-Npg-B5-Asp-3COOHF-Ala-Ala-Phe-Leu-PyrS2-3Thi-BztA-Asn-Leu-Leu-Leu-Leu-Leu-NH2] | > 20 µM | > 20000 nM | > 20 µM |  |  |  |  |  | 
2 | CC(=O)N1CCC[C@]12CC=CCCCC1(CCCC=CCCCOC(=O)N3CC[C@@](C(=O)N[C@@H](Cc4ccccc4C(F)(F)F)C(=O)N[C@@H](Cc4csc5ccccc45)C(=O)N[C@@H](CCC(N)=O)C(=O)N[C@@H](CC(C)C)C(=O)N[C@@H](Cc4ccccc4)C(N)=O)(C3)NC(=O)[C@H](CC(C)C)NC(=O)[C@H](Cc3ccccc3)NC(=O)[C@H](C)NC(=O)[C@H](C)NC(=O)[C@H](Cc3cccc(C(=O)O)c3)NC(=O)[C@H](CC(=O)O)NC1=O)NC(=O)[C@H](CC(C)(C)C)NC(=O)[C@H](CC(=O)O)NC2=O (stereo partly drawn) [I-2381, Ac-PL3-Asp-Npg-B5-Asp-3COOHF-Ala-Ala-Phe-Leu-PyrS2-2F3MeF-BztA-Gln-Leu-Phe-NH2] |  | 1100 nM | > 20 µM | 1470 nM | 2.1 µM |  |  |  | 
3 | CC(=O)N1CCN(C(=O)CC[C@@H]2NC(=O)[C@H](Cc3cccc(C(=O)O)c3)NC(=O)[C@H](CC(=O)O)NC(=O)C3(CCCC=CCCCOC(=O)N4CC[C@@](C(=O)N[C@@H](Cc5ccccc5C(F)(F)F)C(=O)N[C@@H](Cc5csc6ccccc56)C(=O)N[C@@H](C)C(N)=O)(C4)NC(=O)[C@H](CC(C)C)NC(=O)[C@H](Cc4ccccc4)NC(=O)[C@H](C)NC2=O)CCCC=CC[C@]2(CCCN2C(C)=O)C(=O)N[C@@H](CC(=O)O)C(=O)N[C@@H](CC(C)(C)C)C(=O)N3)CC1 (stereo partly drawn) [I-2319, Ac-PL3-Asp-Npg-B5-Asp-3COOHF-[AcPpz]GlnR-Ala-Phe-Leu-PyrS2-2F3MeF-BztA-Ala-NH2] |  | 1700 nM | > 20 µM | 5 nM | 1 µM |  |  |  | 
4 | CC(=O)N1CCC[C@]12CC=CCCCC1(CCCC=CCCCOC(=O)N3CC[C@@](C(=O)N[C@@H](Cc4ccccc4C(F)(F)F)C(=O)N[C@@H](Cc4csc5ccccc45)C(=O)N[C@@H](CO)C(N)=O)(C3)NC(=O)[C@H](CC(C)C)NC(=O)[C@H](Cc3ccccc3)NC(=O)[C@H](C)NC(=O)[C@H](C)NC(=O)[C@H](Cn3cc(CC(C)(C)C(=O)O)nn3)NC(=O)[C@H](CC(=O)O)NC1=O)NC(=O)[C@H](CC(C)(C)C)NC(=O)[C@H](CC(=O)O)NC2=O (stereo partly drawn) [I-2372, Ac-PL3-Asp-Npg-B5-Asp-[CH2CMe2CO2H]TriAzDap-Ala-Ala-Phe-Leu-PyrS2-2F3MeF-BztA-Ser-NH2] |  | 2100 nM | 7 µM | 5 nM | 2.6 µM |  |  |  | 
5 | CC(=O)NCCCC[C@@H]1NC(=O)[C@H](Cc2ccccc2)NC(=O)[C@H](C)NC(=O)C(C)(C)NC(=O)[C@H](Cc2cccc(C(=O)O)c2)NC(=O)[C@H](CC(=O)O)NC(=O)C2(CCCC=CCCCOC(=O)N3CC[C@@](C(=O)N[C@@H](Cc4ccsc4)C(=O)N[C@@H](Cc4csc5ccccc45)C(=O)N[C@@H](C)C(=O)N[C@@H](C)C(N)=O)(C3)NC1=O)CCCC=CC[C@]1(CCCN1C(C)=O)C(=O)N[C@@H](CC(=O)O)C(=O)N[C@@H](CC(C)(C)C)C(=O)N2 (stereo partly drawn) [I-2578, Ac-PL3-Asp-Npg-B5-Asp-3COOHF-Aib-Ala-Phe-AcLys-PyrS2-3Thi-BztA-Ala-Ala-NH2] |  |  |  | 5 nM |  | 5.5 µM | 4100 nM | 7.7 µM | 
6 | CC(=O)N1CCC[C@]12CC=CCCCC1(CCCC=CCCCOC(=O)N3CC[C@@](C(=O)N[C@@H](Cc4ccccc4C(F)(F)F)C(=O)N[C@@H](Cc4csc5ccccc45)C(=O)N[C@@H](CCC(N)=O)C(=O)N[C@@H](CC(C)C)C(=O)N[C@@H](Cc4c[nH]c5ccccc45)C(N)=O)(C3)NC(=O)[C@H](CC(C)C)NC(=O)[C@H](Cc3ccccc3)NC(=O)[C@H](C)NC(=O)[C@H](C)NC(=O)[C@H](Cc3cccc(C(=O)O)c3)NC(=O)[C@H](CC(=O)O)NC1=O)NC(=O)[C@H](CC(C)(C)C)NC(=O)[C@H](CC(=O)O)NC2=O (stereo partly drawn) [I-2394, Ac-PL3-Asp-Npg-B5-Asp-3COOHF-Ala-Ala-Phe-Leu-PyrS2-2F3MeF-BztA-Gln-Leu-Trp-NH2] |  | 700 nM | > 20 µM | 535 nM | 2.2 µM |  |  |  | 
7 | CC(=O)N1CCC[C@]12CC=CCCCC1(CCCC=CCCCOC(=O)N3CC[C@@](C(=O)N[C@@H](Cc4ccsc4)C(=O)N[C@@H](Cc4csc5ccccc45)C(=O)N[C@@H](CC(N)=O)C(N)=O)(C3)NC(=O)[C@H](CC(C)C)NC(=O)[C@H](Cc3ccccc3)NC(=O)[C@H](C)NC(=O)[C@H](C)NC(=O)[C@H](Cc3cccc(C(=O)O)c3)NC(=O)[C@H](CC(=O)O)NC1=O)NC(=O)[C@H](CC(C)(C)C)NC(=O)[C@H](CC(=O)O)NC2=O (stereo partly drawn) [I-2043, Ac-PL3-Asp-Npg-B5-Asp-3COOHF-Ala-Ala-Phe-Leu-PyrS2-3Thi-BztA-Asn-NH2] |  |  |  | 8 nM |  | 2.8 µM |  | 15.2 µM | 1000 nM
8 | CC(=O)N1CCC[C@]12CC=CCCCC1(CCCC=CCCCOC(=O)N3CC[C@@](C(=O)N[C@@H](Cc4ccsc4)C(=O)N[C@@H](Cc4csc5ccccc45)C(=O)N[C@@H](CC(N)=O)C(=O)N[C@@H](CC(C)C)C(N)=O)(C3)NC(=O)[C@H](CC(C)C)NC(=O)[C@H](Cc3ccccc3)NC(=O)[C@H](C)NC(=O)[C@H](C)NC(=O)[C@H](Cc3cccc(C(=O)O)c3)NC(=O)[C@H](CC(=O)O)NC1=O)NC(=O)[C@H](CC(C)(C)C)NC(=O)[C@H](CC(=O)O)NC2=O (stereo partly drawn) [I-2274, Ac-PL3-Asp-Npg-B5-Asp-3COOHF-Ala-Ala-Phe-Leu-PyrS2-3Thi-BztA-Asn-Leu-NH2] |  |  | 6.2 µM | 10 nM | 2 µM |  |  |  | 
9 | CC(=O)N1CCC[C@]12CC=CCCCC1(CCCC=CCCCOC(=O)N3CC[C@@](C(=O)N[C@@H](Cc4ccccc4C(F)(F)F)C(=O)N[C@@H](Cc4csc5ccccc45)C(=O)N[C@@H](C)C(N)=O)(C3)NC(=O)[C@H](CC(C)C)NC(=O)[C@H](Cc3ccccc3)NC(=O)[C@H](C)NC(=O)[C@H](CCC(N)=O)NC(=O)[C@H](Cc3cccc(C(=O)O)c3)NC(=O)[C@H](CC(=O)O)NC1=O)NC(=O)[C@H](CC(C)(C)C)NC(=O)[C@H](CC(=O)O)NC2=O (stereo partly drawn) [I-2057, Ac-PL3-Asp-Npg-B5-Asp-3COOHF-Gln-Ala-Phe-Leu-PyrS2-2F3MeF-BztA-Ala-NH2] |  |  |  | 17 nM |  |  |  | > 20 µM | 4000 nM
